Laboratory results taken from US5985968A, “Surface tension reduction with N,N-dialkyl ureas” (Air Products and Chemicals, Inc., priority 1997, dated 1999).
In brackets after ≈: the same amount, converted by molar mass.

Assays:
Assay type in all cases: physicochemical
[1] = Dynamic surface tension of aqueous solutions, maximum-bubble-pressure method; settings: for Dynamic Surface Tension: about 23° C.; for Surface tension reduction (in words): summary of dynamic surface tension data
Source text: This invention relates to the use of compounds of the formula [drawing 3] where R1 and R2 are independently C1 to C6 alkyl or cycloalkyl with the total number of carbons in R and R' being 6-12 for the reduction of equilibrium and dynamic surface tension in water-based formulations containing an organic compound, particularly coating, ink, and agricultural formulations. […] The maximum-bubble-pressure method of measuring surface tension is described in Langmuir 1986, 2, 428-432, which is incorporated by reference.
In the following examples dynamic surface tension data were generated for aqueous solutions of the indicated compounds using the maximum-bubble-pressure method at the indicated bubble rates, i.e., bubbles/second (b/s), and room temperature of about 23° C. The equipment used was a Kruss BP 2 bubble pressure tensiometer.
(§1) A saturated solution in distilled water of N,N'-di-n-butylurea was prepared by placing 0.1 g of the urea into 99.9 g of water and shaking the mixture for 1-2 h. […] The solids were removed by filtration, and the dynamic surface tension of the resulting solution was measured using the maximum bubble pressure method at bubble rates from 0.1 to 20 b/s. […] In practical terms, high bubble rates correspond to high printing speeds in lithographic or ink-jet printing, high spray or roller velocities in coating applications, and rapid application rates for agricultural products.
Aqueous solutions of N,N-dibutylurea were prepared and their surface tensions were measured using the procedure described above.

[2] = Foaming properties of 0.1 wt % solution, procedure based upon ASTM D 1173-53
Method: The foaming properties of a 0.1 wt % solution of N,N-dibutylurea, N,N-dipentyl-urea, and N,N-dihexylurea were examined using a procedure based upon ASTM D 1173-53. In this test, a 0.1 wt % solution of the surfactant is added from an elevated foam pipette to a foam receiver containing the same solution. The foam height is measured at the completion of the addition ("Initial Foam Height") and the time required for the foam to dissipate is recorded ("Time to 0 Foam"). This test provides a comparison between the foaming characteristics of various surfactant solutions. In general, in coatings, inks, and agricultural formulations, foam is undesirable because is complicates handling and can lead to coating and print defects, and to inefficient application of agricultural materials.

[3] = Equilibrium surface tension of aqueous solutions, Wilhelmy plate technique
Method: (§2) A series of aqueous solutions of various concentrations of n-octylurea [Pfaltz & Bauer] was prepared by placing the urea into water and shaking the mixture for 1-2 h. All of the urea dissolved in the low concentration samples. Undissolved urea in some of the higher concentration samples was remove by filtration. Surface tensions of these solutions were measured using the Wilheimy plate technique. This method provides equilibrium surface tension values. Equilibrium values are always equal to or lower than those obtained under dynamic conditions.

[4] = Solubility in water (saturated solution / solubility limit); settings: in water
Method: as §2, §1
A saturated solution in distilled water of N,N-di-(2-ethylhexyl)urea was prepared by placing 0.1 g of the urea into 99.9 g of water and shaking the mixture for 1-2 h. […] The solids were removed by filtration, and the surface tension of the resulting solution was measured as described above.
Similarly, a saturated solution in distilled water of N,N-di-n-octylurea was prepared by placing 0.1 g of the urea into 99.9 g of water and shaking the mixture for 1-2 hr. […] The solids were removed by filtration, and the surface tension of the resulting solution was measured as described above.
A saturated solution in distilled water of N,N-di-n-hexylurea was prepared by placing 0.1 g of the urea into 99.9 g of water and shaking the mixture for 1-2 h. […] The solids were removed by filtration, and the surface tension of the resulting solution was measured as described above.

## CCCN(CCC)C(N)=O [N,N-Di-n-propylurea, N,N-di-n-propylurea]
[1]; 0.5 wt %, 0.1 b/s
  Dynamic Surface Tension: 53.8 dyne/cm
[1]; 0.5 wt %, 1 b/s
  Dynamic Surface Tension: 54.0 dyne/cm
[1]; 0.5 wt %, 6 b/s
  Dynamic Surface Tension: 54.3 dyne/cm
[1]; 0.5 wt %, 15 b/s
  Dynamic Surface Tension: 53.8 dyne/cm
[1]; 0.5 wt %, 20 b/s
  Dynamic Surface Tension: 53.7 dyne/cm
[1]; 2.0 wt %, 0.1 b/s
  Dynamic Surface Tension: 43.4 dyne/cm
[1]; 2.0 wt %, 1 b/s
  Dynamic Surface Tension: 43.6 dyne/cm
[1]; 2.0 wt %, 6 b/s
  Dynamic Surface Tension: 43.9 dyne/cm
[1]; 2.0 wt %, 15 b/s
  Dynamic Surface Tension: 44.4 dyne/cm
[1]; 2.0 wt %, 20 b/s
  Dynamic Surface Tension: 44.5 dyne/cm
[1]; 4.0 wt %, 0.1 b/s
  Dynamic Surface Tension: 39.0 dyne/cm
[1]; 4.0 wt %, 1 b/s
  Dynamic Surface Tension: 39.1 dyne/cm
[1]; 4.0 wt %, 6 b/s
  Dynamic Surface Tension: 39.3 dyne/cm
[1]; 4.0 wt %, 15 b/s
  Dynamic Surface Tension: 39.5 dyne/cm
[1]; 4.0 wt %, 20 b/s
  Dynamic Surface Tension: 39.6 dyne/cm
[1]
  Surface tension reduction (in words): reasonably effective at reducing the surface tension of water

## CCCCN(CCCC)C(N)=O [N,N-Dibutylurea, N,N-dibutylurea]
[1]; 0.3 wt %, 0.1 b/s
  Dynamic Surface Tension: 42.9 dyne/cm
[1]; 0.3 wt %, 1 b/s
  Dynamic Surface Tension: 43.1 dyne/cm
[1]; 0.3 wt %, 6 b/s
  Dynamic Surface Tension: 43.4 dyne/cm
[1]; 0.3 wt %, 15 b/s
  Dynamic Surface Tension: 43.4 dyne/cm
[1]; 0.3 wt %, 20 b/s
  Dynamic Surface Tension: 43.6 dyne/cm
[1]; 1.0 wt %, 0.1 b/s
  Dynamic Surface Tension: 32.7 dyne/cm
[1]; 1.0 wt %, 1 b/s
  Dynamic Surface Tension: 32.9 dyne/cm
[1]; 1.0 wt %, 6 b/s
  Dynamic Surface Tension: 33.2 dyne/cm
[1]; 1.0 wt %, 15 b/s
  Dynamic Surface Tension: 33.8 dyne/cm
[1]; 1.0 wt %, 20 b/s
  Dynamic Surface Tension: 34.1 dyne/cm
[1]; 1.5 wt %, 0.1 b/s
  Dynamic Surface Tension: 28.2 dyne/cm
[1]; 1.5 wt %, 1 b/s
  Dynamic Surface Tension: 28.3 dyne/cm
[1]; 1.5 wt %, 6 b/s
  Dynamic Surface Tension: 28.5 dyne/cm
[1]; 1.5 wt %, 15 b/s
  Dynamic Surface Tension: 29.1 dyne/cm
[1]; 1.5 wt %, 20 b/s
  Dynamic Surface Tension: 29.5 dyne/cm
[1]; 1.5 wt %, 20 b/s, listed as N,N-dibutylurea
  Dynamic Surface Tension: below 30 dyne/cm
[1]
  Surface tension reduction (in words): highly effective at reducing the surface tension of water
[2]
  Initial Foam Height: 3.0 cm
  Time to 0 Foam: 5 s

## CCCCCCCCNC(N)=O [N-Octylurea, n-octylurea]
[3]; 0.0001 wt % in water
  Equilibrium surface tension: 72.2 dyne/cm
[3]; 0.0005 wt % in water
  Equilibrium surface tension: 72.1 dyne/cm
[3]; 0.001 wt % in water
  Equilibrium surface tension: 72.0 dyne/cm
[3]; 0.003 wt % in water
  Equilibrium surface tension: 68.9 dyne/cm
[3]; 0.005 wt % in water
  Equilibrium surface tension: 62.4 dyne/cm
[3]; 0.007 wt % in water
  Equilibrium surface tension: 60.0 dyne/cm
[3]; 0.009 wt % in water
  Equilibrium surface tension: 57.0 dyne/cm
[3]; 0.015 wt % in water
  Equilibrium surface tension: 57.1 dyne/cm
[3]; 0.03 wt % in water
  Equilibrium surface tension: 55.5 dyne/cm
[3]; 0.06 wt % in water
  Equilibrium surface tension: 57.1 dyne/cm
[3]; limiting value from Table 1 data
  lowest surface tension which can be obtained for an aqueous solution: about 56 dyne/cm
[4]
  solubility: 100 µg/mL (≈ 580 µM)

## CN(C(N)=O)C1CCCCC1 [N-cyclohexyl-N-methylurea]
[1]; 1.0 wt %, 0.1 b/s
  Dynamic Surface Tension: 51.9 dyne/cm
[1]; 1.0 wt %, 1 b/s
  Dynamic Surface Tension: 52.4 dyne/cm
[1]; 1.0 wt %, 6 b/s
  Dynamic Surface Tension: 52.9 dyne/cm
[1]; 1.0 wt %, 15 b/s
  Dynamic Surface Tension: 53.2 dyne/cm
[1]; 1.0 wt %, 20 b/s
  Dynamic Surface Tension: 53.2 dyne/cm
[1]; 2.5 wt %, 0.1 b/s
  Dynamic Surface Tension: 44.1 dyne/cm
[1]; 2.5 wt %, 1 b/s
  Dynamic Surface Tension: 44.6 dyne/cm
[1]; 2.5 wt %, 6 b/s
  Dynamic Surface Tension: 45.1 dyne/cm
[1]; 2.5 wt %, 15 b/s
  Dynamic Surface Tension: 45.6 dyne/cm
[1]; 2.5 wt %, 20 b/s
  Dynamic Surface Tension: 45.8 dyne/cm
[1]
  Surface tension reduction (in words): reasonably effective at reducing the surface tension of water

## N,N-dipentylurea
[1]; 0.1 wt %, 0.1 b/s
  Dynamic Surface Tension: 36.3 dyne/cm
[1]; 0.1 wt %, 1 b/s
  Dynamic Surface Tension: 37.1 dyne/cm
[1]; 0.1 wt %, 6 b/s
  Dynamic Surface Tension: 38.7 dyne/cm
[1]; 0.1 wt %, 15 b/s
  Dynamic Surface Tension: 40.7 dyne/cm
[1]; 0.1 wt %, 20 b/s
  Dynamic Surface Tension: 41.3 dyne/cm
[1]; 0.2 wt %, 0.1 b/s
  Dynamic Surface Tension: 32.8 dyne/cm
[1]; 0.2 wt %, 1 b/s
  Dynamic Surface Tension: 33.4 dyne/cm
[1]; 0.2 wt %, 6 b/s
  Dynamic Surface Tension: 34.6 dyne/cm
[1]; 0.2 wt %, 15 b/s
  Dynamic Surface Tension: 36.2 dyne/cm
[1]; 0.2 wt %, 20 b/s
  Dynamic Surface Tension: 36.3 dyne/cm
[1]; 0.3 wt %, 0.1 b/s
  Dynamic Surface Tension: 30.9 dyne/cm
[1]; 0.3 wt %, 1 b/s
  Dynamic Surface Tension: 31.5 dyne/cm
[1]; 0.3 wt %, 6 b/s
  Dynamic Surface Tension: 32.4 dyne/cm
[1]; 0.3 wt %, 15 b/s
  Dynamic Surface Tension: 32.9 dyne/cm
[1]; 0.3 wt %, 20 b/s
  Dynamic Surface Tension: 33.1 dyne/cm
[2]
  Initial Foam Height: 1.5 cm
  Time to 0 Foam: 3 s
[4]
  solubility limit: 0.3 wt %
